Key:
Type in all cases: cell-based
[1] = target: signal peptidase IB (SpsB) (Staphylococcus aureus, UniProt P0A070, Q165A); experiment: enzyme turnover assay with SpsB mutant (activation retained)
[2] = target: signal peptidase IB (SpsB) (Staphylococcus aureus, UniProt P0A070); experiment: FRET substrate cleavage assay with membrane-bound SpsB (activation); supported by competition of photoprobe labelling in cells and loss of activation in pocket mutants
[3] = target: T1, signal peptidase IB (SpsB) (Staphylococcus aureus, UniProt P0A070); experiment: FRET substrate cleavage assay with SpsB (activation)
T1 sequence (P0A070 1-191): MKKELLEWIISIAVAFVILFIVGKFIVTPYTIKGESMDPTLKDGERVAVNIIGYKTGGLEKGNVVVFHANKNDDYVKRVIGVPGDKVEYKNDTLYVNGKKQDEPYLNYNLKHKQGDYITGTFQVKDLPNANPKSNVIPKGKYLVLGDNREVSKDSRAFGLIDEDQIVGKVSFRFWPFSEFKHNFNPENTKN

SMILES	enzyme turnover assay with SpsB mutant (activation retained) [1]	% [2]	FRET substrate cleavage assay with SpsB (activation) [3]
N=C(N)NCc1ccc(-c2ccc(Br)cc2)o1 [L15]	while Q165A, a control mutation that does not affect binding, still showed activation	~ 150%	–
Nc1nccn1Cc1ccc(-c2ccc(Br)cc2)o1 [D16]	–	–	Further structural derivatives (D10, D14, and D16) also showed SpsB activation in the FRET assay
NCc1ccc(-c2ccc(Br)cc2)o1 [D14]	–	–	Further structural derivatives (D10, D14, and D16) also showed SpsB activation in the FRET assay
N=C(N)NCc1ccc(-c2ccc(Br)cc2)s1 [D10]	–	–	Further structural derivatives (D10, D14, and D16) also showed SpsB activation in the FRET assay

Reference: publication PMC11350587, “Screening Privileged Alkyl Guanidinium Motifs under Host-Mimicking Conditions Reveals a Novel Antibiotic with an Unconventional Mode of Action” (JACS Au, 2024)
